Measured values reported in the NIST ThermoML archive (doi:10.1021/acs.jced.7b00213).
Numbers after ± are expanded uncertainties.

Assay: xn = mol fraction of the nth substance listed
Conditions: Gas, Buoyancy - hydrostatic balance with magnetic suspension - two sinkers, x1 = 0.05362

[HH] [hydrogen] + O=C=O
Conditions	mass density [kg/m3]
273.15 K, 513.52 kPa	9.74868 ± 0.0066
273.15 K, 1039.6 kPa	20.4494 ± 0.013
273.15 K, 1524.6 kPa	31.0881 ± 0.019
273.15 K, 2022.4 kPa	42.9575 ± 0.026
273.15 K, 2536.9 kPa	56.521 ± 0.035
273.15 K, 3036 kPa	71.3532 ± 0.044
293.15 K, 503.16 kPa	8.83486 ± 0.0072
293.15 K, 1014.6 kPa	18.2895 ± 0.014
293.15 K, 1992 kPa	37.9543 ± 0.029
293.15 K, 3016.7 kPa	61.5091 ± 0.046
293.15 K, 4051.1 kPa	89.7154 ± 0.068
293.15 K, 4984.9 kPa	121.352 ± 0.092
323.15 K, 549.21 kPa	8.70026 ± 0.0071
323.15 K, 1038.1 kPa	16.7369 ± 0.013
323.15 K, 2031.1 kPa	34.0104 ± 0.026
323.15 K, 3009.8 kPa	52.4905 ± 0.039
323.15 K, 4029.4 kPa	73.5962 ± 0.055
323.15 K, 5030.4 kPa	96.6051 ± 0.072
323.15 K, 5997.4 kPa	121.561 ± 0.092
